Data as given in article PMC8251347, “Crystal structure of the ferredoxin reductase component of carbazole 1,9a-dioxygenase from Janthinobacterium sp. J3” (Acta Crystallographica. Section D, Structural Biology, 2021).

Molecular target: T1, CARDO-RJ3 (ferredoxin reductase component of carbazole 1,9a-dioxygenase) (Janthinobacterium sp. J3, UniProt Q84II0)
T1 construct: gene carAd; full length, 329 residues, N-terminal His tag kept, expressed in E. coli (plasmid pEJ3NAd for the SeMet protein), monomer in solution; contains plant-type [2Fe-2S] cluster
T1 sequence (Q84II0 1-329): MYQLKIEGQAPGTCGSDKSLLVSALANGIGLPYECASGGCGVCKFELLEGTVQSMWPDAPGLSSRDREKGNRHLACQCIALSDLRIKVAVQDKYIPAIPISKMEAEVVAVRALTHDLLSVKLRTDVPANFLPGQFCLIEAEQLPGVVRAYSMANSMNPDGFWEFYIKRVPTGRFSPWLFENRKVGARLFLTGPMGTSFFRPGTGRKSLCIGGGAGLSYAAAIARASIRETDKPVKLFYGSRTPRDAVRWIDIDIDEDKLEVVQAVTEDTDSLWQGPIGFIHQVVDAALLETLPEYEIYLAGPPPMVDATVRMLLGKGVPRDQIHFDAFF
Experiment: X-ray crystallography, […] A (type I crystal)
Settings: FAD-binding domain site; Ser151, Tyr165, Lys167, Ser217 hydrogen bonds; Phe135 and Phe328 stacking; [2Fe-2S] cluster present; no NAD(P)H

Q: For `Cc1cc2nc3c(=O)[nH]c(=O)nc-3n(C[C@H](O)[C@H](O)[C@H](O)COP(=O)(O)OP(=O)(O)OC[C@H]3O[C@@H](n4cnc5c(N)ncnc54)[C@H](O)[C@@H]3O)c2cc1C` [FAD], which “X-ray crystallography, 2.6 A (type I crystal)” value is on record?
A: Its value is “The type I structure contained the [2Fe-2S] cluster and FAD”.
